Laboratory results published in PMC7703563 (Proceedings of the National Academy of Sciences of the …, 2020).

Legend:
[1] = molecular target: T1, MANEA-Δ97 (human endo-α-1,2-mannosidase catalytic domain, GH99) (Homo sapiens, UniProt Q5SRI9); assay: isothermal titration calorimetry; assay type: binding
T1 sequence (Q5SRI9 98-462): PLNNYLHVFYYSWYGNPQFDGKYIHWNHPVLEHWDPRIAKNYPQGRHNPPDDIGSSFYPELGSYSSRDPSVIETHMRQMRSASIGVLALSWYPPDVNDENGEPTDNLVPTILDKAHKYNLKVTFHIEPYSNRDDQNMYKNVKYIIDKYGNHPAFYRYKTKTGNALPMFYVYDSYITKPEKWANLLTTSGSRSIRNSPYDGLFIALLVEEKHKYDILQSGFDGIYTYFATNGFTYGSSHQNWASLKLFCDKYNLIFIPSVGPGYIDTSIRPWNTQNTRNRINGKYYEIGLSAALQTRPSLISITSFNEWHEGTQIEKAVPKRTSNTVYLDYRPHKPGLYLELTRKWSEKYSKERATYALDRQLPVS

[2] = molecular target: T1, MANEA-Δ97 (human endo-α-1,2-mannosidase catalytic domain, GH99); assay: X-ray crystal structure; assay type: binding; settings: ternary complex with GlcIFG; +1/+2 subsites
purified protein = substrate: CO[C@H]1O[C@H](CO)[C@@H](O)[C@H](O)[C@@H]1O[C@H]1O[C@H](CO)[C@@H](O)[C@H](O)[C@@H]1O[C@H]1O[C@H](CO)[C@@H](O)[C@H](O[C@H]2O[C@H](CO)[C@@H](O)[C@H](O)[C@H]2O)[C@@H]1O; assay: purified protein; settings: α-mannosidase-coupled release of mannose

OC[C@H]1NC[C@@H](O)[C@@H](O[C@H]2O[C@H](CO)[C@@H](O)[C@H](O)[C@H]2O)[C@@H]1O [GlcDMJ]
Kd [1]: 1020 nM

OC[C@H]1O[C@H](O[C@@H]2C(O)O[C@H](CO)[C@@H](O)[C@@H]2O)[C@@H](O)[C@@H](O)[C@@H]1O (stereo partly drawn) [α-1,2-mannobiose]
X-ray crystal structure [2]: a ternary complex with GlcIFG and α-1,2-mannobiose

B1: MANEA-Δ97 (human endo-α-1,2-mannosidase catalytic domain, GH99) (Homo sapiens) (protein)
chain: T1 sequence (Q5SRI9 98-462)
Km (purified protein): 426 ± 33 µM
kcat (purified protein): 0.462 ± 0.0167 s⁻¹
